Active and inactive are the calls of the source. The calls are words filed in the database; no cut-off is given here.
What was measured:
[1] = biological target: T1, Lysosomal Pro-X carboxypeptidase (Mus musculus, UniProt Q7TMR0); test: Inhibition of PrCP in mouse plasma assessed as angiotensin 3 cleavage; assay type: cell-free
T1 sequence (Q7TMR0 whole entry): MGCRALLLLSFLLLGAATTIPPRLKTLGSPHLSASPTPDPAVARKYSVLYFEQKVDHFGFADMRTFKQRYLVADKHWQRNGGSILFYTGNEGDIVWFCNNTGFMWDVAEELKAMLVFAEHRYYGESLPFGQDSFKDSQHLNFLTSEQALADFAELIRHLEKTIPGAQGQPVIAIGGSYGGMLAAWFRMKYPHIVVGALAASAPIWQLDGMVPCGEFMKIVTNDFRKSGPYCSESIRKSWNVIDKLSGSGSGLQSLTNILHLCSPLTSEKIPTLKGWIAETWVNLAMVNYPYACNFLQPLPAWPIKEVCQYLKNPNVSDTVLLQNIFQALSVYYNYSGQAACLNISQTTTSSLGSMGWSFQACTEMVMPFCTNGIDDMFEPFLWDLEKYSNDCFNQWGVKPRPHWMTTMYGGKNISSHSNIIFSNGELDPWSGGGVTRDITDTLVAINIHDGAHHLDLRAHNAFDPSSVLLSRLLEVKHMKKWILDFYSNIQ

[2] = Oral bioavailability in mouse at 2 mg/kg; assay type: ADME, organism-based; conditions: in vivo
[3] = Clearance in mouse at 1 mg/kg, iv and 2 mg/kg, po; assay type: ADME, organism-based; conditions: in vivo
[4] = Half life in mouse at 1 mg/kg, iv and 2 mg/kg, po; assay type: ADME, organism-based; conditions: in vivo
[5] = Volume of distribution at steady state in mouse at 1 mg/kg, iv and 2 mg/kg, po; assay type: ADME, organism-based; conditions: in vivo, read-out: Vdss
[6] = biological target: T1, Lysosomal Pro-X carboxypeptidase; test: Inhibition of mouse PrCP
[7] = Drug level in mdr1a deficient mouse brain at 0.5 mg/kg after 4 hrs; assay type: ADME, organism-based; set-up: dose 0.5 mg/kg; conditions: read-out: Drug uptake
[8] = Ratio of drug level in brain to plasma in mdr1a deficient mouse at 0.5 mg/kg after 4 hrs; assay type: ADME, organism-based; set-up: dose 0.5 mg/kg; conditions: read-out: BPR
[9] = Drug level in wild type CF1 mouse brain at 0.5 mg/kg after 0.5 hrs; assay type: ADME, organism-based; set-up: dose 0.5 mg/kg; conditions: read-out: Drug uptake
[10] = Ratio of drug level in brain to plasma in mdr1a deficient mouse at 0.5 mg/kg after 0.5 hrs; assay type: ADME, organism-based; set-up: dose 0.5 mg/kg; conditions: read-out: BPR
[11] = Drug level in mdr1a deficient mouse plasma at 0.5 mg/kg after 4 hrs; assay type: ADME, organism-based; set-up: dose 0.5 mg/kg; conditions: read-out: Drug uptake
Mus musculus [12] = test: Antiobesity activity in PrCP knockout mouse assessed as reduction of food intake at 12 mg/kg sc by continuous infusion pump qd for 7 days; assay type: functional, organism-based; set-up: dose 12 mg/kg
Mus musculus [13] = species on record: Mus musculus; conditions: Plasma, 30 mg/kg
Description: Inhibition of ex vivo PrCP engagement in eDIO mouse plasma at 30 mg/kg, sc by continuous infusion pump for 7 days

[14] = Ratio of drug level in brain to plasma in wild type CF1 mouse at 0.5 mg/kg after 4 hrs; assay type: ADME, organism-based; set-up: dose 0.5 mg/kg; conditions: read-out: BPR
[15] = Drug level in wild type CF1 mouse plasma at 0.5 mg/kg after 0.5 hrs; assay type: ADME, organism-based; set-up: dose 0.5 mg/kg; conditions: read-out: Drug uptake
Mus musculus [16] = test: Antiobesity activity in PrCP knockout mouse assessed as reduction of body weight at 12 mg/kg sc by continuous infusion pump qd for 7 days; assay type: functional, organism-based; set-up: dose 12 mg/kg
Mus musculus [17] = test: Antiobesity activity in eDIO mouse assessed as reduction of body weight at 12 mg/kg sc by continuous infusion pump qd for 7 days; assay type: functional, organism-based; set-up: dose 12 mg/kg
[18] = Drug level in wild type CF1 mouse plasma at 0.5 mg/kg after 4 hrs; assay type: ADME, organism-based; set-up: dose 0.5 mg/kg; conditions: read-out: Drug uptake
[19] = Plasma concentration in eDIO mouse at 10 to 60 mg/kg, sc by continuous infusion pump for 7 days; assay type: ADME, organism-based; set-up: dose 10-60 mg/kg, route subcutaneous
Mus musculus [20] = test: Antiobesity activity in eDIO mouse assessed as reduction of food intake at 12 mg/kg sc by continuous infusion pump qd for 7 days; assay type: functional, organism-based; set-up: dose 12 mg/kg
[21] = Plasma concentration in PrCP knockout mouse at 12 mg/kg sc by continuous infusion pump qd for 7 days; assay type: ADME, organism-based; set-up: dose 12 mg/kg, route subcutaneous
[22] = Plasma concentration in eDIO mouse at 12 mg/kg sc by continuous infusion pump qd for 7 days; assay type: ADME, organism-based; set-up: dose 12 mg/kg, route subcutaneous
Mus musculus [23] = test: Inhibition of ex vivo PrCP engagement in eDIO mouse plasma at 60 mg/kg, sc by continuous infusion pump for 7 days; assay type: functional; conditions: 168 h, route subcutaneous
[24] = Drug level in wild type CF1 mouse brain at 0.5 mg/kg after 4 hrs; assay type: ADME, organism-based; set-up: dose 0.5 mg/kg; conditions: read-out: Drug uptake
Mus musculus [25] = test: Inhibition of ex vivo PrCP engagement in eDIO mouse plasma at 60 mg/kg, sc by continuous infusion pump for 7 days additionally treated 2 uM of compound; assay type: functional; conditions: 168 h, route subcutaneous
[26] = Drug level in mdr1a deficient mouse plasma at 0.5 mg/kg after 0.5 hrs; assay type: ADME, organism-based; set-up: dose 0.5 mg/kg; conditions: read-out: Drug uptake
[27] = Drug level in mdr1a deficient mouse brain at 0.5 mg/kg after 0.5 hrs; assay type: ADME, organism-based; set-up: dose 0.5 mg/kg; conditions: read-out: Drug uptake
[28] = Ratio of drug level in brain to plasma in wild type CF1 mouse at 0.5 mg/kg after 0.5 hrs; assay type: ADME, organism-based; set-up: dose 0.5 mg/kg; conditions: read-out: BPR
Mus musculus [29] = species on record: Mus musculus; conditions: Plasma, 10 mg/kg
Description: Inhibition of ex vivo PrCP engagement in eDIO mouse plasma at 10 mg/kg, sc by continuous infusion pump for 7 days

[30] = biological target: T2, Lysosomal Pro-X carboxypeptidase (Homo sapiens) (UniProt P42785); test: Inhibition of human PrCP at 5 uM
T2 sequence (whole entry): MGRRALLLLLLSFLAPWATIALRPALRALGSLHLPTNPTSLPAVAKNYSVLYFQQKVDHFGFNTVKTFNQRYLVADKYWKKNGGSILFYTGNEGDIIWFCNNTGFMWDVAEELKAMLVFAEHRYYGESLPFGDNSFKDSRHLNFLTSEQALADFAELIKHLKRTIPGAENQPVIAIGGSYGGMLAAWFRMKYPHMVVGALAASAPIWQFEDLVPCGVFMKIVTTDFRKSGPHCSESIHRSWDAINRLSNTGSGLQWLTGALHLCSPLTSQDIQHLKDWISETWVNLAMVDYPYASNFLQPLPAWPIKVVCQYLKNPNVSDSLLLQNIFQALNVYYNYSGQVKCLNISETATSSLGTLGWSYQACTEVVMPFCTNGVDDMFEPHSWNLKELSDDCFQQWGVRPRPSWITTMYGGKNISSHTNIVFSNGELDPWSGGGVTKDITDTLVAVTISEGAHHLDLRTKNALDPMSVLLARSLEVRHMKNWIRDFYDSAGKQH

## Cn1nc(C2CCN(CCC(=O)N3CCC[C@H]3c3nc4cc(Cl)c(Cl)cc4[nH]3)CC2)cc1-c1cccnc1
[1]
  IC50: 39 nM

## CS(=O)(=O)c1ccc(-c2noc(C3CCN(CCC(=O)N4CCC[C@H]4c4nc5cc(Cl)c(Cl)cc5[nH]4)CC3)n2)cc1
[2]
  bioavailability: 14%
[3]
  clearance: 54 mL/min/kg
[1]
  IC50: 10 nM
[4]
  half-life: 2.2 h
[5]
  Vd: 7.7 L/kg
[6]
  IC50: 0.41 nM

## O=C(CCN1CCC(n2ncnn2)CC1)N1CCC[C@H]1c1nc2cc(Cl)c(Cl)cc2[nH]1
[1]
  IC50: 2900 nM

## O=C(CCN1CCC(c2cnccn2)CC1)N1CCC[C@H]1c1nc2cc(Cl)c(Cl)cc2[nH]1
[1]
  IC50: 8000 nM

## O=C(O)c1ccc(-c2noc(C3CCN(CCC(=O)N4CCC[C@H]4c4nc5cc(Cl)c(Cl)cc5[nH]4)CC3)n2)cc1
[1]
  IC50: 241 nM

## O=C(CCN1CCC(c2ccncc2)CC1)N1CCC[C@H]1c1nc2cc(Cl)c(Cl)cc2[nH]1
[1]
  IC50: 430 nM

## Cn1nc(C2CCN(CCC(=O)N3CCC[C@H]3c3nc4cc(Cl)c(Cl)cc4[nH]3)CC2)cc1-c1ccncc1
[7]
  concentration at 4 h: 54 nM
[8]
  Kp at 4 h: 13
[2]
  bioavailability: 4%
[9]
  concentration at 0.5 h: 10 nM
[10]
  Kp at 0.5 h: 1.4
[11]
  concentration at 4 h: 4 nM
Mus musculus [12]
  Activity: Active
Mus musculus [13]
  inhibition: Active
[3]
  clearance: 65 mL/min/kg
[1]
  IC50: 6.7 nM
[14]
  Kp at 4 h: 0.88
[4]
  half-life: 4.1 h
[15]
  concentration at 0.5 h: 54 nM
Mus musculus [16]
  Activity: Active
Mus musculus [17]
  Activity: Active
[18]
  concentration at 4 h: 4.6 nM
[19]
  concentration at 168 h: 90 nM
[5]
  Vd: 9.4 L/kg
Mus musculus [20]
  Activity: Active
[21]
  concentration at 168 h: 290 nM
[22]
  concentration at 168 h: 210 nM
[6]
  IC50: 0.8 nM
Mus musculus [23]
  inhibition in vivo at 60 mg/kg: 55%
[24]
  concentration at 4 h: 4 nM
Mus musculus [25]
  inhibition in vivo at 60 mg/kg: 80%
[26]
  concentration at 0.5 h: 51 nM
[27]
  concentration at 0.5 h: 70 nM
[28]
  Kp at 0.5 h: 0.2
Mus musculus [29]
  inhibition: Active

## O=C(CCN1CCC(c2nc(-c3cnccn3)no2)CC1)N1CCC[C@H]1c1nc2cc(Cl)c(Cl)cc2[nH]1
[1]
  IC50: 435 nM

## O=C(CCN1CCC(c2nc(-c3ncccn3)no2)CC1)N1CCC[C@H]1c1nc2cc(Cl)c(Cl)cc2[nH]1
[1]
  IC50: 745 nM

## O=C(CCN1CCC(c2cn[nH]c2)CC1)N1CCC[C@H]1c1nc2cc(Cl)c(Cl)cc2[nH]1
[6]
  IC50: 107 nM

## O=C(CCN1CCC(c2nc(-c3ccccn3)no2)CC1)N1CCC[C@H]1c1nc2cc(Cl)c(Cl)cc2[nH]1
[1]
  IC50: 173 nM
[6]
  IC50: 3.5 nM

## O=C(CCN1CCC(c2nc(-c3cccnc3)no2)CC1)N1CCC[C@H]1c1nc2cc(Cl)c(Cl)cc2[nH]1
[1]
  IC50: 155 nM

## O=C(CCN1CCN(c2ccccc2)CC1)N1CCC[C@H]1c1nc2cc(Cl)c(Cl)cc2[nH]1
[1]
  IC50: > 10000 nM

## O=C(CCN1CCC(c2nc(-c3ccncc3)no2)CC1)N1CCC[C@H]1c1nc2cc(Cl)c(Cl)cc2[nH]1
[2]
  bioavailability: 8%
[3]
  clearance: 38 mL/min/kg
[1]
  IC50: 29 nM
[4]
  half-life: 4.9 h
[5]
  Vd: 5.7 L/kg
[6]
  IC50: 0.53 nM

## O=C(CCN1CCC(c2cc[nH]n2)CC1)N1CCC[C@H]1c1nc2cc(Cl)c(Cl)cc2[nH]1
[1]
  IC50: 290 nM

## O=C(CCN1CCC(c2ccccc2)CC1)N1CCC[C@H]1c1nc2cc(Cl)c(Cl)cc2[nH]1
[1]
  IC50: > 10000 nM

## CC(C)(CCCC(=O)N1CCC[C@H]1c1nc2cc(Cl)c(Cl)cc2[nH]1)N1CCC(c2nc(-c3ccccn3)no2)CC1
[2]
  bioavailability: 3%
[3]
  clearance: 60 mL/min/kg
[1]
  IC50: 113 nM
[4]
  half-life: 3.1 h
[5]
  Vd: 12 L/kg
[6]
  IC50: 19 nM

## O=C(CCN1CCC(c2ccccc2)C1)N1CCC[C@H]1c1nc2cc(Cl)c(Cl)cc2[nH]1 (stereo partly drawn)
[30]
  inhibition: 93%

## O=C(CCN1CCC(c2cc(-c3ccncc3)[nH]n2)CC1)N1CCC[C@H]1c1nc2cc(Cl)c(Cl)cc2[nH]1
[1]
  IC50: 485 nM

## CS(=O)(=O)c1ccc(-c2noc(C3CCN(CCC(=O)N4CCC[C@H]4c4nc5cc(Cl)c(Cl)cc5[nH]4)C(=O)C3)n2)cc1 (stereo partly drawn)
[2]
  bioavailability: 3%
[3]
  clearance: 115 mL/min/kg
[1]
  IC50: 425 nM
[4]
  half-life: 1.3 h
[5]
  Vd: 3 L/kg
